Tests used:
[1] = test system: posterior foregut spheroids; assay: Gastric specification of posterior foregut spheroids into fundic hGOs (qPCR/staining); assay type: cell-based, human
Experimental: Posterior foregut spheroids were collected and transferred to a three-dimensional culture system as previously described^36. Briefly, spheroids were suspended in 50 μl Matrigel (BD Biosciences) and plated as a droplet into 24-well plates. The matrigel was allowed to solidify for 10 minutes in the tissue culture incubator, then overlayed with basic gut media (BGM) containing growth factors and/or small molecule agonsists. BGM consisted of Advanced DMEM/F12 media (Gibco) supplemented with N2 (1×; Invitrogen), B27 (1×; Invitrogen), HEPES ([…]; Gibco), L-glutamine, penicillin/streptomycin, and EGF (100 ng/ml; R&D Systems). During days 6-9, spheroids were cultured with RA and noggin to specify the antral lineage. For fundic specification, CHIR was added during this stage. Antral hGOs were subsequently cultured in BGM with only EGF. Fundic hGOs were continuously exposed to CHIR from day 6-30. […] On day 20, organoids were collected and re-plated at a dilution of 1:10-1:20.
(§1) Total RNA was isolated using Nucleospin RNA II kit (Machery Nagel) and converted to cDNA as previously described7. qPCR was performed on Quantstudio 6 (Applied Biosystems) using Quantitect SYBR-Green master mix (Qiagen), and primer sequences are listed below.

[2] = test system: hFGOs; assay: Screen for factors that increase parietal cell differentiation in hFGOs (qPCR at day 34); assay type: cell-based, human; details: for parietal cell gene expression (ATP4A and ATP4B): day 30 hFGOs exposed two days, analysed at day 34
Experimental: For screening experiments to identify factors that increase parietal cell differentiation, hFGOs were grown to day 30, then exposed for two days to individual signaling pathway agonists and antagonists: DAPT (1 μM; Stemgent), SB431542 (10 μM; Stemgent), BMP4 (50 ng/ml; R&D Systems), PD0325901 (2 μM; Stemgent), Gastrin (10 nM; Sigma Aldrich), Dexamethasone (50 nM; Sigma Aldrich), and Wnt5a (50 ng/ml; R&D Systems). Following treatment, hFGOs were grown for two more days to day 34, then analyzed by qPCR.
as §1

[3] = test system: hFGOs; assay: Acid secretion assay, luminal pH by SNARF-5F in fundic hGOs; assay type: cell-based, human
Experimental: Acid secretion assays were performed as previously described (Schumacher et al., 2015). hGOs were grown in the chambered coverglass (Thermo Scientific) and the chamber was placed on an inverted confocal microscope (Zeiss LSM 710), and experiments were performed under 5% CO2 and 37° C. conditions (incubation chamber, PeCon, Erbach, Germany).
(§2) Freshly isolated mouse gastric fundic glands or cultured hGO were incubated with acridine orange (10 μM), then acridine orange fluorescence was excited at 458 nm or 488 nm and images were collected at 600-650 nm (Red) or 500-550 nm (Green), respectively. On the other hand, to monitor hGOs luminal pH, the ratiometric pH sensitive dye, 5-(and-6)-carboxy SNARF-5F (5 mM stock: EX 560 nm, EM 565-605 (Green) and 620-680 (Red) nm: Invitrogen) was microinjected (46-92 nl) into the lumen and monitored. Fluorescent dye also added into medium. Histamine (100 μM; Sigma) was added to media, while famotidine (100 μM; Sigma) or omeprazole (100 μM; Sigma) were pre-incubated at least 30 min before histamine. Images were analyzed using MetaMorph software (Molecular Devices, Downingtown, Pa.). Background corrected 620-680/565-605 nm ratio values were converted to pH using a standard curve.

[4] = test system: hAGOs; details: histamine 100 μM
Experimental: as §2, with “Acid secretion assays were performed as previously described (Schumacher et al., 2015). hGOs were grown in the chambered coverglass (Thermo Scientific) and the chamber was placed on an inverted confocal microscope (Zeiss LSM 710), and experiments were performed under 5% CO2 and 37° C. conditions (incubation chamber, PeCon, Erbach, Germany). Freshly” for “Freshly”, “Histamine (100 μM;” left out

[5] = test system: hFGOs; details: histamine, hFGO glands
Experimental: as §2, with “Acid secretion assays were performed as previously described (Schumacher et al., 2015). hGOs were grown in the chambered coverglass (Thermo Scientific) and the chamber was placed on an inverted confocal microscope (Zeiss LSM 710), and experiments were performed under 5% CO2 and 37° C. conditions (incubation chamber, PeCon, Erbach, Germany). Freshly” for “Freshly”, “Histamine (100 μM;” left out

[6] = test system: isolated mouse gastric glands; details: histamine, after 60 minutes
Experimental: as §2, with “Acid secretion assays were performed as previously described (Schumacher et al., 2015). hGOs were grown in the chambered coverglass (Thermo Scientific) and the chamber was placed on an inverted confocal microscope (Zeiss LSM 710), and experiments were performed under 5% CO2 and 37° C. conditions (incubation chamber, PeCon, Erbach, Germany). Freshly” for “Freshly”, “Histamine (100 μM;” left out

[7] = CHIR for three days (days 6-9), analysed at day 9

## Cc1c[nH]c(-c2cnc(NCCNc3ccc(C#N)cn3)nc2-c2ccc(Cl)cc2Cl)n1 [CHIR99021]
[1]; [7]
  PDX1 expression: nearly complete repression
  SOX2 and GATA4 levels: unaffected
  expression of IRX2, IRX3, and IRX5: significantly increased expression
[1]; CHIR-treated hGOs
  intestinal markers CDX2, MUC2, CCK, or SCT: did not exhibit a significant increase
[1]; continued CHIR treatment through at least day 29
  fundic gene expression: stable induction of fundic gene expression
[1]; three-day pulse of CHIR from days 6-9, later stages
  specification of fundic identity: not sufficient to irreversibly specify a fundic identity

## O=C(NOC[C@H](O)CO)c1ccc(F)c(F)c1Nc1ccc(I)cc1F [PD0325901]
[2]
  parietal cell gene expression (ATP4A and ATP4B): substantial up-regulation

## NC(N)=Nc1nc(CSCCC(N)=NS(N)(=O)=O)cs1 [famotidine]
[3]; 100 μM, pre-incubated at least 30 min before histamine 100 μM
  histamine-induced decrease in luminal pH (acidification): blocked

## NCCc1c[nH]cn1 [histamine]
[3]; histamine 100 μM
  luminal pH response: swift and marked decrease in luminal pH
[4]
  luminal pH response: no response
[5]
  acridine orange (AO) accumulation: AO accumulated in acidified cellular vesicles
[6]
  acridine orange (AO) accumulation: induced acridine orange (AO) dye accumulation in a canalicular-type pattern

B1: FGF10: growth factor (R&D Systems) added to fundic hGOs day 20-30 (protein, UniProt O15520 38-208, looked up)
Fibroblast growth factor 10: QALGQDMVSPEATNSSSSSFSSPSSAGRHVRSYNHLQGDVRWRKLFSFTKYFLKIEKNGKVSGTKKENCPYSILEITSVEIGVVAVKAINSNYYLAMNKKGKLYGSKEFNNDCKLKERIEENGYNTYASFNWQHNGRQMYVALNGKGAPRRGQKTRRKNTSAHFLPMVVHS
[1]; FGF10 50 ng/ml, day 20-30, data not shown
  glandular morphogenesis driven by CHIR: enhance the glandular morphogenesis

B2: BMP4: growth factor, BMP signalling activator (R&D Systems) (protein, UniProt P12644 293-408, looked up)
Bone morphogenetic protein 4: SPKHHSQRARKKNKNCRRHSLYVDFSDVGWNDWIVAPPGYQAFYCHGDCPFPLADHLNSTNHAIVQTLVNSVNSSIPKACCVPTELSAISMLYLDEYDKVVLKNYQEMVVEGCGCR
[1]; Noggin replaced with BMP4, with Wnt/β-catenin activation (CHIR)
  CDX2 expression: robust expression of the intestinal transcription factor
[2]; BMP4 added to PD03, data not shown
  effect of PD03 on parietal cell gene expression: could enhance the effect of PD03
[2]
  parietal cell gene expression (ATP4A and ATP4B): did not affect PC gene expression
